These are literature values, as cited in patent US20120277719A1, “COATING COMPOSITIONS, METHODS AND COATED DEVICES” (MASSACHUSETTS INSTITUTE OF TECHNOLOGY, priority 2011, published 2012).

The conditions of this series: reported.

One may read the pKa as the negative logarithm of the acid dissociation constant. In the case of `O=C(OC[C@H]1O[C@@H](OC(=O)c2cc(O)c(O)c(OC(=O)c3cc(O)c(O)c(O)c3)c2)[C@H](OC(=O)c2cc(O)c(O)c(OC(=O)c3cc(O)c(O)c(O)c3)c2)[C@@H](OC(=O)c2cc(O)c(O)c(OC(=O)c3cc(O)c(O)c(O)c3)c2)[C@@H]1OC(=O)c1cc(O)c(O)c(OC(=O)c2cc(O)c(O)c(O)c2)c1)c1cc(O)c(O)c(OC(=O)c2cc(O)c(O)c(O)c2)c1` [Tannic acid, tannic acid], the pKa was around 8.5.
